The record followed here is US20080051327A1, “Crystals of an Aurora-A Tpx2 Complex, Tpx2 Binding Site of Aurora-A, Aurora-A Ligands and Their Use” (EMBL, priority 2003, published 2008).

For orientation: IC50 means the midpoint of a concentration-inhibition curve.

Assay [1] deals with T1, Aurora A (Homo sapiens, UniProt O14965).
T1 sequence (O14965 1-403): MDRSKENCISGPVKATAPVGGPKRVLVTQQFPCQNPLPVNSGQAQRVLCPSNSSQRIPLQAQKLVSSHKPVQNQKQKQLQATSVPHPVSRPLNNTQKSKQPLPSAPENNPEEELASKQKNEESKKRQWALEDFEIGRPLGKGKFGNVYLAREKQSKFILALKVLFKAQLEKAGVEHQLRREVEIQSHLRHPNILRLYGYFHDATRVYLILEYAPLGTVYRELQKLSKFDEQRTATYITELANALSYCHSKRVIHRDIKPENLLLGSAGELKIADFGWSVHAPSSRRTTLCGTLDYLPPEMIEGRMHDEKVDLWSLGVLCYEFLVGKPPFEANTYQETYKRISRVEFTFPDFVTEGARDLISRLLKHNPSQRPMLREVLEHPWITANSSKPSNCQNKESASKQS
The assay is described as follows: phosphatase assay, PP1 treatment of Aurora-A, Western blot. The format is biochemical. The following applies: TPX2 protein 3 μM, Aurora-A 2 μM, PP1 0.5 h at 30° C., FIG. 1E. As to the method: Samples were diluted in phosphatase buffer (50 mM Tris-HCl pH 7, 0.1 mM EDTA, 1 mM MnCl2, 5 mM caffeine, 5 mM DTT, 0.025% Tween 20) and incubated in the absence or presence of PP1 (α isoform, NEB) for 0.5 h at 30° C. Afterwards proteins were separated by SDS-PAGE and analyzed by Western blotting with anti-Aurora-A or anti-phospho-Aurora-A (Cell Signalling, 1:10000 dilution).

For assay [2], the target named is T1, Aurora A. The assay is described as follows: immunoprecipitation from mitotic HeLa cell extract. The assay is classed as binding. The following applies: GST fusion proteins 1 μM, FIG. 1B.
Experimental: HeLa cells (CCL2; ATCC, Manassas, Va.) were grown in 10% fetal calf serum (FCS) and 2 mM L-glutamine in modified Eagle's medium at 37° C. and 5% CO2. Cells were arrested in S phase using a double thymidine (2 mM) block as described (Stein, 1994) and released from S phase by washing away the thymidine. After 10 h, cells were trypsinized, incubated for 10 min in ice-cold lysis buffer (25 mM Tris pH 7.6, 200 mM NaCl, 1% Triton, protease inhibitors), and centrifuged for 10 min at 15,000 g.
For coating beads with anti-GST, 6 μg of antibody were incubated with 20 μl of protein A-conjugated Dynabeads 280 (Dynal) in a total volume of 100 μl PBS-T (PBS, 0.1% Triton X-100), for at least 1 h at 4° C. The beads were washed twice with PBS-T and twice with HeLa cells lysis buffer or CSF-XB (10 mM Hepes pH 7.7, 50 mM sucrose, 100 mM KCl, 2 mM MgCl2, 0.1 mM CaCl2 and 5 mM EGTA). 50 μl extract was incubated with GST, GST TPX2 1-43, GST TPX2 15-43, GST TPX2 Xenopus or GST TPX2(1-39) Xenopus proteins (final concentrations: 250 nM Xenopus; 1 μM HeLa) in the absence or presence of RanQ69L-GTP (16 μm) for 15 minutes at 20° C. and then added to the beads. […] The samples were then subjected to gel electrophoresis and analyzed by Western blotting with anti-GST, anti-Xenopus TPX2, anti-Xenopus Aurora-A or anti-human Aurora-A.
Assay [3] deals with T1, Aurora A. The assay is described as follows: luminescence ATP detection kinase assay (EasyLite-Kinase), Aurora without TPX2. The following applies: for IC50: 150 nM Aurora without TPX2, 20 μM ATP, 100 μM Kemptide, 20 min room temperature. The format is biochemical. On the procedure: (§1) The ability of compounds (7) and (12) to inhibit Aurora A was tested in a luminescence ATP detection assay system for kinase applications. Briefly, the compound of the present invention was added to a solution of Aurora A in HEPES buffer (150 nM Aurora +/− TPX2, 25 mM HEPES pH 7.4, 5 mM MgCl2, 0.01% Tween 20; 0.1% BSA; 100 μM Kemptide [Promega Corporation, Madison, Wis.]); final assay concentrations). The addition of an ATP solution (20 μM final concentration) initiated the reaction. The reaction was carried out for 20 min at room temperature and terminated by the addition of equal volumes of EasyLite Solution (Perkin Elmer Corporation, Boston, Mass.) followed by monitoring the luminescence in a Wallac Envision plate reader (Perkin Elmer Corporation, Boston, Mass.). The EasyLite-Kinase® is an ATP monitoring system based on firely (Photinus pyralis) luciferase for the evaluation of kinase activity. The system relies on the consumption of ATP during a kinase reaction and is commercially available.

Assay [4] concerns the target T2, Aurora + TPX2 (Homo sapiens, UniProt O14965).
T2 sequence (O14965 1-403): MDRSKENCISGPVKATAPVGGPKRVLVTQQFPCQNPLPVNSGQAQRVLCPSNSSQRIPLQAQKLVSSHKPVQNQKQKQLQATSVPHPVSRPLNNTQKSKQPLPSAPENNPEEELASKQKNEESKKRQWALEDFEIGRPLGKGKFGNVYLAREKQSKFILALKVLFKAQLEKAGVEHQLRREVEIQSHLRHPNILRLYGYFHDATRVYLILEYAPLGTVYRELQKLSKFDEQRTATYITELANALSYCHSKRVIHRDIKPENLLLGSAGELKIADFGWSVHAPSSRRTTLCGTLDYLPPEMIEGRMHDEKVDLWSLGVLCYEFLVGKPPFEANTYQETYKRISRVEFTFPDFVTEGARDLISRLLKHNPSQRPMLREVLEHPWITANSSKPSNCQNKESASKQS
The assay is described as follows: luminescence ATP detection kinase assay (EasyLite-Kinase), Aurora + TPX2. Conditions: 150 nM Aurora with TPX2, 20 μM ATP, 100 μM Kemptide, 20 min room temperature. The assay is classed as biochemical. On the procedure:
as §1

Assay [5] addresses protein kinase A, PKA (Homo sapiens, UniProt P17612). The assay is described as follows: luminescence ATP detection kinase assay, PKA counter-test. The assay is classed as biochemical.
In assay [6] the target is T1, Aurora A. The assay is described as follows: in vitro kinase assay, phosphorylation of histone H3 (autoradiography). The following applies: full length Aurora-A, TPX2 protein at 4 μM, FIG. 1C. More on the design: were incubated with full length Aurora-A or AuroraΔN in kinase buffer; made in house; host or cells: bacteria (printed only for the full-length protein used as immunogen). The assay is classed as biochemical.

As to “TPX2(15-43): shorter construct of human TPX2 encompassing residues 15-43 (DFINFSSLDDEGDTQNIDSWFEEKANLEN)”, the “protection of Aurora-A from dephosphorylation by PP1” value in assay [1] is “fully dephosphorylated as in the absence of TPX2 altogether”. For the same molecule, the “interaction with Aurora-A in HeLa extract” value in assay [2] is “unable to do so”.
Turning to `COC(=O)C(CC(=O)NCc1cn(CCCCc2ccccn2)c2ccc(Oc3ccc(O)cc3)cc12)NC(C)=O` (stereo not drawn) [(12), 3-N-aspartylaminomethyl-5-O-p-hydroxyphenyl-1-N-(4-pyridylbutyl)-indole], in assay [3], the “inhibition of Aurora (in words)” value is “inhibited Aurora significantly”. Moreover, the IC50 was 37 µM in assay [3], 37 µM in assay [4] and more than 500 µM in assay [5].
For the molecule `OCc1cn(CCCCc2ccccn2)c2ccc(Oc3ccc(O)cc3)cc12` [(7)], the “inhibition of Aurora (in words)” value in assay [3] is listed as “inhibited Aurora significantly”. In addition, the IC50 in assay [3] was 79 µM; in assay [4] it was more than 500 µM; in assay [5] it was more than 500 µM.

B1: Full-length TPX2: full-length TPX2 protein, specific activator of Aurora-A (protein, UniProt Q9ULW0 1-747, looked up)
chain: MSQVKSSYSYDAPSDFINFSSLDDEGDTQNIDSWFEEKANLENKLLGKNGTGGLFQGKTPLRKANLQQAIVTPLKPVDNTYYKEAEKENLVEQSIPSNACSSLEVEAAISRKTPAQPQRRSLRLSAQKDLEQKEKHHVKMKAKRCATPVIIDEILPSKKMKVSNNKKKPEEEGSAHQDTAEKNASSPEKAKGRHTVPCMPPAKQKFLKSTEEQELEKSMKMQQEVVEMRKKNEEFKKLALAGIGQPVKKSVSQVTKSVDFHFRTDERIKQHPKNQEEYKEVNFTSELRKHPSSPARVTKGCTIVKPFNLSQGKKRTFDETVSTYVPLAQQVEDFHKRTPNRYHLRSKKDDINLLPSKSSVTKICRDPQTPVLQTKHRARAVTCKSTAELEAEELEKLQQYKFKARELDPRILEGGPILPKKPPVKPPTEPIGFDLEIEKRIQERESKKKTEDEHFEFHSRPCPTKILEDVVGVPEKKVLPITVPKSPAFALKNRIRMPTKEDEEEDEPVVIKAQPVPHYGVPFKPQIPEARTVEICPFSFDSRDKERQLQKEKKIKELQKGEVPKFKALPLPHFDTINLPEKKVKNVTQIEPFCLETDRRGALKAQTWKHQLEEELRQQKEAACFKARPNTVISQEPFVPKKEKKSVAEGLSGSLVQEPFQLATEKRAKERQELEKRMAEVEAQKAQQLEEARLQEEEQKKEELARLRRELVHKANPIRKYQGLEIKSSDQPLTVPVSPKFSTRFHC
modifications: full-length
For the molecule B1, the “protection of Aurora-A from dephosphorylation by PP1” value in assay [1] is “prevents dephosphorylation of Thr288AUR”. Also, in assay [6], the “stimulation of histone H3 phosphorylation by Aurora-A” value is listed as “increases the activity of the kinase, but appears less effective than the fragment”.
